Earlier results on one compound are cited in PMC10218941, “Design, Synthesis, Antiproliferative Actions, and DFT Studies of New Bis–Pyrazoline Derivatives as Dual EGFR/BRAF^V600E Inhibitors” (International Journal of Molecular Sciences, 2023).

“And” between values parts separate entries of the source, which are not always exact repeats. Equal values may be shown once.

In data set [1] the target is T1, EGFR (Homo sapiens, UniProt P00533).
T1 construct: 645–1186); His6 (N); made in house; host or cells: Sf-9 insect cells (baculovirus; pBlueBacHis2B / pFASTBacHTc
T1 sequence (P00533 669-1210): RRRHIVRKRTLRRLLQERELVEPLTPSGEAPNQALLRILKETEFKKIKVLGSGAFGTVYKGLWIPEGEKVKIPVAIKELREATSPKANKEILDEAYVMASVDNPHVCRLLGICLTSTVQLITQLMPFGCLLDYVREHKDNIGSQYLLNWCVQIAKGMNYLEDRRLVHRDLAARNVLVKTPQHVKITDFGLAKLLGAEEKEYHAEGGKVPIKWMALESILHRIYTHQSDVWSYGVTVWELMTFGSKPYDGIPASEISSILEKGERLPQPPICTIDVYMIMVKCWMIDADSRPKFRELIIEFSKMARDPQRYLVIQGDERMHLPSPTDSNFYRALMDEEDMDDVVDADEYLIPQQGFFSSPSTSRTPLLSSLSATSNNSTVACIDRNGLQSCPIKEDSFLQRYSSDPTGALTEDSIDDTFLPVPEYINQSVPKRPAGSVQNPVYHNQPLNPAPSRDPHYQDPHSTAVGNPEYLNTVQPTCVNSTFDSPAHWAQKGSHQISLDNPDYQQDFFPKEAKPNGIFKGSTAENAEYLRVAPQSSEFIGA
The arrangement: method as in PMID 35424523. As to conditions: cited from earlier work.

Data set [2] has as its system BRAF^V600E. The arrangement: method as in PMID 35424523. Particulars: cited from earlier work.

As usually defined, the IC50 is the concentration at which inhibition is half-maximal. Turning to `Cc1c(Nc2nc3c(C(=O)NN)c(N)sc3s2)c(=O)n(-c2ccccc2)n1C` [II], the IC50 in data set [1] was 20 nM; in data set [2], 88 nM and 90 nM.
